Assay results published in the supplement of paper PMC10307832.

Assays:
Assay in all cases: relative viability (nuclei count vs DMSO), 5 days (fraction); higher = more cells survive
[1] = compound: Cn1cc(-c2cnn3c(N)c(Br)c([C@@H]4CCCNC4)nc23)cn1 + CS(=O)(=O)CCNCc1ccc(-c2ccc3ncnc(Nc4ccc(OCc5cccc(F)c5)c(Cl)c4)c3c2)o1 [Lapatinib] (partner 2 µM)
Outline: (§1)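 Relative viability divides the nuclei count in treated wells by that in vehicle wells. Lung cancer cell lines were seeded in 1536-well plates, dosed by pin tool the next day, and fixed and stained after 5 days in one step with final 0.05% Triton X-100, 1% formaldehyde and 1 ug/ml Hoechst. Dosing was a single drug or a fixed anchor-drug dose plus five library-drug doses (not always all listed) in √10 steps, and values are medians of duplicate plates imaged at 4×.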

[2] = compound: Cn1cc(-c2cnn3c(N)c(Br)c([C@@H]4CCCNC4)nc23)cn1 + C[C@@H](Oc1cc(-c2cnn(C3CCNCC3)c2)cnc1N)c1c(Cl)ccc(F)c1Cl [Crizotinib] (partner 1 µM)
Outline: as §1

[3] = compound: Cn1cc(-c2cnn3c(N)c(Br)c([C@@H]4CCCNC4)nc23)cn1 + Cc1nc(Nc2ncc(C(=O)Nc3c(C)cccc3Cl)s2)cc(N2CCN(CCO)CC2)n1 [Dasatinib] (partner 0.075 µM)
Outline: as §1

[4] = compound: Cn1cc(-c2cnn3c(N)c(Br)c([C@@H]4CCCNC4)nc23)cn1 + Nc1nc2[nH]cc(CCc3ccc(C(=O)N[C@@H](CCC(=O)O)C(=O)O)cc3)c2c(=O)[nH]1 [Pemetrexed] (partner 0.2 µM)
Outline: as §1

Cell Line	relative viability ([1]; first compound 0.05 µM)	relative viability ([1]; first compound 0.1581 µM)	relative viability ([1]; first compound 0.5 µM)	relative viability ([1]; first compound 1.581 µM)	relative viability ([1]; first compound 5 µM)	relative viability ([2]; first compound 0.05 µM)	relative viability ([2]; first compound 0.1581 µM)	relative viability ([2]; first compound 0.5 µM)	relative viability ([2]; first compound 1.581 µM)	relative viability ([2]; first compound 5 µM)	relative viability ([3]; first compound 0.05 µM)	relative viability ([3]; first compound 0.1581 µM)	relative viability ([3]; first compound 0.5 µM)	relative viability ([3]; first compound 1.581 µM)	relative viability ([3]; first compound 5 µM)	relative viability ([4]; first compound 0.05 µM)	relative viability ([4]; first compound 0.1581 µM)	relative viability ([4]; first compound 0.5 µM)	relative viability ([4]; first compound 1.581 µM)	relative viability ([4]; first compound 5 µM)
UMC-11	1.09	1	0.699	0.624	0.463	0.736	0.504	0.623	0.392	0.262	0.536	0.424	0.32	0.312	0.341	0.841	0.753	0.626	0.657	0.429
NCI-H1792	0.84	1.06	0.335	0.718	0.784	0.843	0.861	0.861	0.656	0.582		0.852	0.624	0.933	0.425	0.847	1.19	0.795		0.55
NCI-H1993	0.634	0.858		0.739	0.759	0.76	0.878		0.933	0.702	0.619	0.601	0.545	0.549	0.507	0.572	0.595	0.693	0.482	0.575
NCI-H596	1.15	1.09	1.06	0.972	1	0.943	1.01	1.05	0.906	0.953	0.668	0.549	0.552	0.545	0.589	0.481	0.462	0.534	0.371	0.326
NCI-H1563	0.941	0.861	0.888	0.859	0.888	0.78	0.812	0.933	0.782	0.8	0.418	0.451	0.503	0.436	0.412	0.754	0.647	0.782	0.753	0.532
HCC-827	0.234	0.197	0.196	0.178	0.152	0.929	1	0.909	0.899	0.871	0.32	0.392	0.276	0.295	0.193	0.269	0.202	0.249	0.228	0.187
NCI-H2228	1.54	1.14	1.2	0.493	0.378	0.502	0.491	0.404	0.419	0.277	0.572	0.66	0.459	0.294	0.241	0.315	0.33	0.311	0.22	0.155
NCI-H2170	0.26	0.252	0.289	0.282	0.286	1.19	1.21	1.19	1.16	1.12	0.713	0.541	0.524	0.551	0.446	0.268	0.258	0.26	0.256	0.223
